Literature values, collected in patent US8497291B2 (Cyclacel Limited, priority 2005, dated 2013).
Where two headings read alike, the source gives them in different places.

Columns and labels:
colon cancer = settings: model of colon cancer
[1] = test system: variety of cell lines, xenograft and metastatic cancer model
[2] = phase I, patients with a variety of cancers

For `CCCCCCCCCCCCCCCC(=O)Nc1ccn([C@@H]2O[C@H](CO)[C@@H](O)[C@@H]2C#N)c(=O)n1` [CYC682, 2′-cyano-2′-deoxy-N^4-palmitoyl-1-β-D-arabinofuranosylcytosine], the anticancer activity (colon cancer) is given as “strong anticancer activity”, the “increasing survival compared with gemcitabine or 5-FU” value (colon cancer) is given as “superior” and the “preventing the spread of colon cancer metastases to the liver compared with gemcitabine or 5-FU” value (colon cancer) is given as “superior”. The anti-tumour activity ([1]; as demonstrated in EP 536936) was “excellent anti-tumour activity”, the anti-tumour activity ([1]; variety of cell lines, xenograft and metastatic cancer model) was “potent anti-tumour activity” and the dose limiting toxicity [2] was “myelosuppression”. For the same compound, the tolerability in humans [2] was “well tolerated”.
